Data from ChEMBL document CHEMBL1141299, “Hologram QSAR model for the prediction of human oral bioavailability” (Bioorg Med Chem, 2007).

Tested on: Homo sapiens
Assay: (§1) Oral bioavailability in human
Conditions: in vivo

SMILES | F [%]
O=C(NC[C@H]1CCCCN1)c1cc(OCC(F)(F)F)ccc1OCC(F)(F)F (stereo in doubt; 083) [(R)-FLECAINIDE] | 95
C[C@H]1COc2c(N3CCN(C)CC3)c(F)cc3c(=O)c(C(=O)O)cn1c23.C[C@H]1COc2c(N3CCN(C)CC3)c(F)cc3c(=O)c(C(=O)O)cn1c23.O (stereo in doubt; 162) [LEVOFLOXACIN] | 97.5
O=C(NC[C@H]1CCCCN1)c1cc(OCC(F)(F)F)ccc1OCC(F)(F)F (stereo in doubt; 268) [(R)-FLECAINIDE] | 70

Tested on: not listed separately
Assay: as §1
Conditions: in vivo

SMILES | bioavailability [%]
C[C@]12CC[C@H]3[C@@H](CCC4=CC(=O)CC[C@@]43C)[C@@H]1CC[C@@H]2O [TESTOSTERONE] | 7
Cn1c(=O)c2[nH]cnc2n(C)c1=O.O [THEOPHYLLINE] | 98.8
COc1cccc([C@@]2(O)CCCC[C@@H]2CN(C)C)c1 [TRAMADOL] | 75
Cc1nnc2n1-c1ccc(Cl)cc1C(c1ccccc1Cl)=NC2 [TRIAZOLAM] | 44
O=C(O[C@H]1C[C@H]2CC[C@@H](C1)[N+]21CCCC1)C(O)(c1ccccc1)c1ccccc1 [TROSPIUM] | 9.6
CCN(C(C)=O)c1cccc(-c2ccnc3c(C#N)cnn23)c1 [ZALEPLON] | 30
Cc1ccc(-c2nc3ccc(C)cn3c2CC(=O)N(C)C)cc1 [ZOLPIDEM] | 72

Same assay, conditions: in vivo, F

SMILES | bioavailability [%]
CN(C)[C@@H]1C(O)=C(C(N)=O)C(=O)[C@@]2(O)C(O)=C3C(=O)c4c(O)cccc4[C@@](C)(O)[C@H]3C[C@@H]12 [TETRACYCLINE] | 77
CCCCNC(=O)NS(=O)(=O)c1ccc(C)cc1 [TOLBUTAMIDE] | 85
CC1(C)O[C@@H]2[C@@H](CO[C@@]3(COS(N)(=O)=O)OC(C)(C)O[C@@H]23)O1 [TOPIRAMATE] | 70
CC[C@@]1(O)C(=O)OCc2c1cc1n(c2=O)Cc2cc3c(CN(C)C)c(O)ccc3nc2-1 [TOPOTECAN] | 32
Cc1cccc(Nc2ccncc2S(=O)(=O)NC(=O)NC(C)C)c1 [TORSEMIDE] | 91
COc1cc(Cc2cnc(N)nc2N)cc(OC)c1OC [TRIMETHOPRIM] | 63
CCCC(CCC)C(=O)O [VALPROIC ACID] | 90
Cc1cn([C@H]2C[C@H](N=[N+]=[N-])[C@@H](CO)O2)c(=O)[nH]c1=O [ZIDOVUDINE] | 64
O=C1Cc2cc(CCN3CCN(c4nsc5ccccc45)CC3)c(Cl)cc2N1 [ZIPRASIDONE] | 60
